Patent US8435980B2 (AbbVie Inc., priority 2009, dated 2013)

molecular target: T1, Cdc7 (BEV coexpressed huCDC7/DBF4) (Homo sapiens, UniProt O00311); experiment: Cdc7 enzyme inhibition assay ([33P]ATP, biotinylated peptide substrate, FlashPlate); format: biochemical; conditions: Table 3; enzyme inhibition data (Ki)
T1 construct: made in house; host or cells: BEV (baculovirus expression vector) co-expression; insect cells are implied but no cell line is named
Protocol: Cdc7 (BEV coexpressed huCDC7/DBF4) is prepared internally. Cdc7 assays are conducted as follows with final concentrations as listed. […] Reactions are quenched after 1 hr by the addition of 90 μL stop buffer (50 mM EDTA, 2M NaCl). […] (Ki) for exemplary compounds.

T1 sequence (O00311 whole entry): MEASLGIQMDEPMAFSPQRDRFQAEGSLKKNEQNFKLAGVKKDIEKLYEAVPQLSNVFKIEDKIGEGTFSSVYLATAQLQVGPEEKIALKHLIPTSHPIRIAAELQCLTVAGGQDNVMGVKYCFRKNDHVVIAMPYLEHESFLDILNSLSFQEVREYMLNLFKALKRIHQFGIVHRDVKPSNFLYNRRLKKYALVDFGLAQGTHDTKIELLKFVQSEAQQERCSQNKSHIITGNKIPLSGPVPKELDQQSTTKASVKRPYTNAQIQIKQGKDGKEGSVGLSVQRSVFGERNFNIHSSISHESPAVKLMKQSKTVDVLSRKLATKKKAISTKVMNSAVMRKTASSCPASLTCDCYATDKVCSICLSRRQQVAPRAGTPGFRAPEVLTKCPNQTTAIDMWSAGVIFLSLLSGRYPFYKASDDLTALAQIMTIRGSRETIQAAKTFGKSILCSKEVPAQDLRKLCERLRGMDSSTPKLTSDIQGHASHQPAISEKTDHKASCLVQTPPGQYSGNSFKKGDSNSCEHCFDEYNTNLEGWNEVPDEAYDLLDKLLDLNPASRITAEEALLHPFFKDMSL
T1 sequence (Q9UBU7 whole entry partner): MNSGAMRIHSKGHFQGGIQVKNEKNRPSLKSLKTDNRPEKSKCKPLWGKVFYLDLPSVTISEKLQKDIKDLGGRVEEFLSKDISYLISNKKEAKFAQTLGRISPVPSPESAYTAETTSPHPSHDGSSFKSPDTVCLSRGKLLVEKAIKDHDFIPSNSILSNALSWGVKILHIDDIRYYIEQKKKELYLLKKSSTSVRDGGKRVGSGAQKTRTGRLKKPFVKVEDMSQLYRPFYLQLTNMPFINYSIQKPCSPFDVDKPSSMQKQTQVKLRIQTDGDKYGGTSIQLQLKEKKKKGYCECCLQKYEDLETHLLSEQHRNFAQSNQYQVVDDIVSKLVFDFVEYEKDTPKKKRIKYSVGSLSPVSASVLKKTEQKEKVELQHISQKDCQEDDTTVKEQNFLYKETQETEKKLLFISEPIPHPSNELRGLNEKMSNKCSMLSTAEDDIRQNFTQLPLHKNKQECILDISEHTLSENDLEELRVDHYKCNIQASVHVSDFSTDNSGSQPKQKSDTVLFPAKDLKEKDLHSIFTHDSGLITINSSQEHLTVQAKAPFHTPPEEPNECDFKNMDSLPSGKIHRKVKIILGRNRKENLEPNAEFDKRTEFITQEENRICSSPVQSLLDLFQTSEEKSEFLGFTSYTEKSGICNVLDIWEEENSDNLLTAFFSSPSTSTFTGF

Ki, < 10 nM:
Clc1cc(-c2c[nH]c3ncccc23)cc(NC2CCC(CC3CCC(NC4CCCCC4)CC3)CC2)n1 (stereo not drawn) [Example 156]
Clc1cc(-c2c[nH]c3ncccc23)cc(N[C@H]2CC[C@H](NC3CCN(C4CCCCC4)CC3)CC2)n1 [Example 157, trans-N-[6-chloro-4-(1H-pyrrolo[2,3-b]pyridin-3-yl)pyridin-2-yl]-N′-(1-cyclohexylpiperidin-4-yl)cyclohexane-1,4-diamine]
Clc1cc(-c2c[nH]c3ncccc23)cc(NC2CCC(C3CCNCC3)CC2)n1 (stereo not drawn) [Example 159, 6-chloro-N-[4-(piperidin-4-yl)cyclohexyl]-4-(1H-pyrrolo[2,3-b]pyridin-3-yl)pyridin-2-amine]
O=C(N[C@H]1CC[C@H](Nc2cc(-c3c[nH]c4ncccc34)cc(Cl)n2)CC1)C1CNC1 [Example 160, N-(trans-4-{[6-chloro-4-(1H-pyrrolo[2,3-b]pyridin-3-yl)pyridin-2-yl]amino}cyclohexyl)azetidine-3-carboxamide]
CC(=O)NC1CCC(N[C@H]2CC[C@H](Nc3cc(-c4c[nH]c5ncccc45)cc(Cl)n3)CC2)CC1 (stereo partly drawn) [Example 161, N-{4-[(trans-4-{[6-chloro-4-(1H-pyrrolo[2,3-b]pyridin-3-yl)pyridin-2-yl]amino}cyclohexyl)amino]cyclohexyl}acetamide]
O=C(NC1CCC(N[C@H]2CC[C@H](Nc3cc(-c4c[nH]c5ncccc45)cc(Cl)n3)CC2)CC1)C1CC1 (stereo partly drawn) [Example 162, N-{4-[(trans-4-{[6-chloro-4-(1H-pyrrolo[2,3-b]pyridin-3-yl)pyridin-2-yl]amino}cyclohexyl)amino]cyclohexyl}cyclopropanecarboxamide]
CC(=O)N1CCC(C2CCC(Nc3cc(-c4c[nH]c5ncccc45)cc(Cl)n3)CC2)CC1 (stereo not drawn) [Example 163, 1-[4-(4-{[6-chloro-4-(1H-pyrrolo[2,3-b]pyridin-3-yl)pyridin-2-yl]amino}cyclohexyl)piperidin-1-yl]ethanone]
CC(=O)NCCS(=O)(=O)NC1CCCC(Nc2cc(-c3c[nH]c4ncccc34)cc(Cl)n2)C1 (stereo not drawn) [Example 164, N-{2-[(3-{[6-chloro-4-(1H-pyrrolo[2,3-b]pyridin-3-yl)pyridin-2-yl]amino}cyclohexyl)sulfamoyl]ethyl}acetamide]
O=C(NCCS(=O)(=O)NC1CCCC(Nc2cc(-c3c[nH]c4ncccc34)cc(Cl)n2)C1)C1CC1 (stereo not drawn) [Example 165, N-{2-[(3-{[6-chloro-4-(1H-pyrrolo[2,3-b]pyridin-3-yl)pyridin-2-yl]amino}cyclohexyl)sulfamoyl]ethyl}cyclopropanecarboxamide]
O=C(N[C@H]1CC[C@H](Nc2cc(-c3c[nH]c4ncccc34)cc(Cl)n2)CC1)C1CN(Cc2ccc(F)cc2)C1 [Example 166, N-(trans-4-{[6-chloro-4-(1H-pyrrolo[2,3-b]pyridin-3-yl)pyridin-2-yl]amino}cyclohexyl)-1-(4-fluorobenzyl)azetidine-3-carboxamide]
CS(=O)(=O)N1CC(C(=O)N[C@H]2CC[C@H](Nc3cc(-c4c[nH]c5ncccc45)cc(Cl)n3)CC2)C1 [Example 167, N-(trans-4-{[6-chloro-4-(1H-pyrrolo[2,3-b]pyridin-3-yl)pyridin-2-yl]amino}cyclohexyl)-1-(methylsulfonyl)azetidine-3-carboxamide]
Clc1cc(-c2c[nH]c3nccc(Cl)c23)cc(NC2CCCCC2)n1 [Example 168, 6-chloro-4-(4-chloro-1H-pyrrolo[2,3-b]pyridin-3-yl)-N-cyclohexylpyridin-2-amine]
O=S(=O)(CCNC1CCC1)NC1CCCC(Nc2cc(-c3c[nH]c4ncccc34)cc(Cl)n2)C1 (stereo not drawn) [Example 170, N-(3-{[6-chloro-4-(1H-pyrrolo[2,3-b]pyridin-3-yl)pyridin-2-yl]amino}cyclohexyl)-2-(cyclobutylamino)ethanesulfonamide]
Clc1cc(-c2c[nH]c3ncc(-c4cn[nH]c4)cc23)cc(NC2CCCCC2)n1 [Example 171, 6-chloro-N-cyclohexyl-4-[5-(1H-pyrazol-4-yl)-1H-pyrrolo[2,3-b]pyridin-3-yl]pyridin-2-amine]
O=C(NCCS(=O)(=O)NC1CCCC(Nc2cc(-c3c[nH]c4ncccc34)cc(Cl)n2)C1)c1cnccn1 (stereo not drawn) [Example 172, N-{2-[(3-{[6-chloro-4-(1H-pyrrolo[2,3-b]pyridin-3-yl)pyridin-2-yl]amino}cyclohexyl)sulfamoyl]ethyl}pyrazine-2-carboxamide]
Clc1cc(-c2c[nH]c3ncc(Br)cc23)cc(NC2CCCCC2)n1 [Example 173, 4-(5-bromo-1H-pyrrolo[2,3-b]pyridin-3-yl)-6-chloro-N-cyclohexylpyridin-2-amine]
CC(=O)NC1CCC(CC2CCC(Nc3cc(-c4c[nH]c5ncccc45)cc(Cl)n3)CC2)CC1 (stereo not drawn) [Example 174, N-{4-[(4-{[6-chloro-4-(1H-pyrrolo[2,3-b]pyridin-3-yl)pyridin-2-yl]amino}cyclohexyl)methyl]cyclohexyl}acetamide]
O=C(C1CC1)N1CCC(NC2CCC(Nc3cc(-c4c[nH]c5ncccc45)cc(Cl)n3)CC2)CC1 (stereo not drawn) [Example 175, {4-[(4-{[6-chloro-4-(1H-pyrrolo[2,3-b]pyridin-3-yl)pyridin-2-yl]amino}cyclohexyl)amino]piperidin-1-yl}(cyclopropyl)methanone]
Cn1cc(-c2cnc3[nH]cc(-c4cc(Cl)nc(NC5CCCCC5)c4)c3c2)cn1 [Example 176, 6-chloro-N-cyclohexyl-4-[5-(1-methyl-1H-pyrazol-4-yl)-1H-pyrrolo[2,3-b]pyridin-3-yl]pyridin-2-amine]
COc1cnc2[nH]cc(-c3cc(Cl)nc(NC4CCCCC4)c3)c2c1 [Example 178, 6-chloro-N-cyclohexyl-4-(5-methoxy-1H-pyrrolo[2,3-b]pyridin-3-yl)pyridin-2-amine]
NCCS(=O)(=O)N[C@H]1CC[C@H](Nc2cc(-c3c[nH]c4ncccc34)cc(Cl)n2)CC1 [Example 179, 2-amino-N-(trans-4-{[6-chloro-4-(1H-pyrrolo[2,3-b]pyridin-3-yl)pyridin-2-yl]amino}cyclohexyl)ethanesulfonamide]
Oc1cnc2[nH]cc(-c3cc(Cl)nc(NC4CCCCC4)c3)c2c1 [Example 180, 3-[2-chloro-6-(cyclohexylamino)pyridin-4-yl]-1H-pyrrolo[2,3-b]pyridin-5-ol]
Clc1cc(-c2c[nH]c3ncccc23)cc(NC2CCC(C3CCCNC3)CC2)n1 (stereo not drawn) [Example 181, 6-chloro-N-[4-(piperidin-3-yl)cyclohexyl]-4-(1H-pyrrolo[2,3-b]pyridin-3-yl)pyridin-2-amine]
Clc1cc(-c2c[nH]c3ncccc23)cc(NC2CCC(C3CCN(C4CCC4)CC3)CC2)n1 (stereo not drawn) [Example 182, 6-chloro-N-[4-(1-cyclobutylpiperidin-4-yl)cyclohexyl]-4-(1H-pyrrolo[2,3-b]pyridin-3-yl)pyridin-2-amine]
CS(=O)(=O)N1CCC(C2CCC(Nc3cc(-c4c[nH]c5ncccc45)cc(Cl)n3)CC2)CC1 (stereo not drawn) [Example 183, 6-chloro-N-{4-[1-(methylsulfonyl)piperidin-4-yl]cyclohexyl}-4-(1H-pyrrolo[2,3-b]pyridin-3-yl)pyridin-2-amine]
CN1CCC(C2CCC(Nc3cc(-c4c[nH]c5ncccc45)cc(Cl)n3)CC2)CC1 (stereo not drawn) [Example 184, 6-chloro-N-[4-(1-methylpiperidin-4-yl)cyclohexyl]-4-(1H-pyrrolo[2,3-b]pyridin-3-yl)pyridin-2-amine]
CN1CCC(C2CCC(N(C)c3cc(-c4c[nH]c5ncccc45)cc(Cl)n3)CC2)CC1 (stereo not drawn) [Example 185, 6-chloro-N-methyl-N-[4-(1-methylpiperidin-4-yl)cyclohexyl]-4-(1H-pyrrolo[2,3-b]pyridin-3-yl)pyridin-2-amine]
CS(=O)(=O)N1CCCC(C2CCC(Nc3cc(-c4c[nH]c5ncccc45)cc(Cl)n3)CC2)C1 (stereo not drawn) [Example 186, 6-chloro-N-{4-[1-(methylsulfonyl)piperidin-3-yl]cyclohexyl}-4-(1H-pyrrolo[2,3-b]pyridin-3-yl)pyridin-2-amine]
Clc1cc(-c2c[nH]c3ncc(-c4cnn(CCN5CCOCC5)c4)cc23)cc(NC2CCCCC2)n1 [Example 187, 6-chloro-N-cyclohexyl-4-(5-{1-[2-(morpholin-4-yl)ethyl]-1H-pyrazol-4-yl}-1H-pyrrolo[2,3-b]pyridin-3-yl)pyridin-2-amine]
O=C(C1CC1)N1CCCC(C2CCC(Nc3cc(-c4c[nH]c5ncccc45)cc(Cl)n3)CC2)C1 (stereo not drawn) [Example 188, [3-(4-{[6-chloro-4-(1H-pyrrolo[2,3-b]pyridin-3-yl)pyridin-2-yl]amino}cyclohexyl)piperidin-1-yl](cyclopropyl)methanone]
Clc1cc(-c2c[nH]c3ncccc23)cc(NC2CCC(C3CCCN(C4CCC4)C3)CC2)n1 (stereo not drawn) [Example 189, 6-chloro-N-[4-(1-cyclobutylpiperidin-3-yl)cyclohexyl]-4-(1H-pyrrolo[2,3-b]pyridin-3-yl)pyridin-2-amine]
Clc1cc(-c2c[nH]c3ncccc23)cc(NC2CCC(C3CCNC3)CC2)n1 (stereo not drawn) [Example 190, 6-chloro-N-[4-(pyrrolidin-3-yl)cyclohexyl]-4-(1H-pyrrolo[2,3-b]pyridin-3-yl)pyridin-2-amine]
CN1CCC(N2CCC(Nc3cc(-c4c[nH]c5ncccc45)cc(Cl)n3)CC2)CC1 [Example 191, N-[6-chloro-4-(1H-pyrrolo[2,3-b]pyridin-3-yl)pyridin-2-yl]-1′-methyl-1,4′-bipiperidin-4-amine]
